# Key:
# 5-HT1 -like receptors = details: in vitro and in vivo animal experiments; cited from earlier work
# clinical = test: clinical; set-up: species or system healthy volunteers; details: human, in vivo
# Description: A double-blind, randomized, cross-over trial in healthy volunteers during four treatment days were set up. All volunteers (n=8) participated in the four sessions of the trial, in which the above formulation was tested. On each treatment day volunteers received a single intranasal administration of 1 mg of a formulation of (-)-(R)-N-[(3,4-dihydro-2H-1-benzopyran-2-yl)methyl]-N'-(1,4,5,6-tetrahydro-2-pyrimidinyl)-1,3-propanediamine dihydrochloride as described in example 1. Unidose nasal sprayers at a concentration of 10 mg/ml, which provided a volume of 100 μl per spray were used. The composition was administered to the volunteers as a single spray in one nostril. Blood was sampled over 24 hours for pharmacokinetic analysis. Venous 10 ml blood samples for drug analysis were taken at 0, 5, 10, 20, 30, 60, 90, 120, 240 and 360 minutes and 24 hours after drug administration. The blood samples were transferred to heparinized tubes and centrifuged within 30 minutes after collection. Separated plasma was transferred to polystyrene tubes adequately labelled with the trial number, subject number and initials, time and date of sampling.
# Concentrations of (-)-(R)-N-[(3,4-dihydro-2H-1-benzopyran -2-yl)methyl]-N'-(1,4,5,6-tetrahydro-2-pyrimidinyl)-1,3-propanediamine dihydrochloride were determined by radio immunoassay. […]
bioavailability at 24 h (clinical) [%],Structure (SMILES),arterial vasoconstrictor response arises through activation of 5-HT1 -like receptors (5-HT1 -like receptors),vasoconstrictory properties (5-HT1 -like receptors)
,"c1ccc2c(c1)CCC(CNCCCNC1=NCCCN1)O2 (stereo not drawn) [N-[(3,4-dihydro-2H-1-benzopyran-2-yl)methyl]-N'-(1,4,5,6-tetrahydro-2-pyrimidinyl)-1,3-propanediamine]",agonistic activation of 5-HT1 -like receptors,highly vasoconstrictory properties
~35,"Cl.Cl.c1ccc2c(c1)CC[C@H](CNCCCNC1=NCCCN1)O2 [active ingredient, (-)-(R)-N-[(3,4-dihydro-2H-1-benzopyran-2-yl)methyl]-N'-(1,4,5,6-tetrahydro-2-pyrimidinyl)-1,3-propanediamine dihydrochloride]",,

# Source: patent US6054462A, “Intranasal antimigraine compositions” (Janssen Pharmaceutica, N.V., priority 1994, dated 2000)
